≈ marks a conversion by molar mass, not a printed value. Where two headings read alike, the source gives them in different places.
Columns and labels:
[1] = test system: breast tumour; design: method as in Holmes et al., 1991; details: breast tumour patients who had failed one previous course of chemotherapy; ref Holmes et al., 1991; cited from earlier work
[2] = mouse, in vivo, ip, 20 mg/kg
[3] = test system: P388; test: In vitro tumour cell cytotoxicity, colorimetric MTT assay, 72 h; type: cell-based, murine; details: Mus musculus, 72 h exposure, read-out: IC50
[4] = test system: ovarian tumours; design: method as in McGuire et al., 1989; details: ovarian tumours that had failed cisplatinum therapy; ref McGuire et al., 1989; cited from earlier work
[5] = test system: human MX-1 xenograft solid tumour; details: for Delay (1.0 g) (footnote: delay to reach mean tumour mass = 0.5 g, compared with untreated) / Per cent cures (mice with no palpable tumours, day 60) / Per cent toxicity / TWI (per cent tumour weight inhibition when untreated control mean = 0.5 g): q.d., i.p., days 1-5 after inoculation, s.c. xenograft
[6] = test system: B16F10; test: In vitro tumour cell cytotoxicity, colorimetric MTT assay, 72 h; type: cell-based, murine; details: Mus musculus, B16-F10, 72 h exposure, read-out: IC50
[7] = test system: A549; test: as above; type: cell-based, human; details: Homo sapiens, 72 h exposure, read-out: IC50
[8] = test system: HT-29; test: as above; type: cell-based, human; details: Homo sapiens, 72 h exposure, read-out: IC50
[9] = test system: murine B16F10 melanoma ascites tumour; test: In vivo efficacy vs i.p. B16F10 melanoma ascites tumour; details: for %ILS (group mean increase in lifespan) / MST (mean survival time ± s.d.) / Per cent toxicity (mice with premature death) / Per cent cures (mice alive 60 days after inoculation): q.d., i.p., days 1-5 after inoculation, BDF1 mice
[10] = test system: BDF mice bearing B16F10 ascites tumours; details: maximum dose yielding <20% lethality following five i.p. doses once daily
[11] = test system: murine M109 solid tumour; test: In vivo efficacy vs subcutaneous M109 solid tumour
[12] = in vivo; details: male, CD-1, mouse, ip, 20 mg/kg
[13] = dose 6.25 mg kg-1 per day, nude mice
[14] = dose 12.5 mg kg-1 per day, nude mice
[15] = dose 25 mg kg-1 per day, nude mice
[16] = once daily on days 1-5 after inoculation
[17] = at non-toxic doses, i.p. once daily for 5 consecutive days
[18] = dose 6.25 mg kg-1 per day, q.d., i.p., days 1, 5, 9 after inoculation, s.c. tumour, BDF1 mice
[19] = dose 12.5 mg kg-1 per day, q.d., i.p., days 1, 5, 9 after inoculation, s.c. tumour, BDF1 mice
[20] = dose 25 mg kg-1 per day, q.d., i.p., days 1, 5, 9 after inoculation, s.c. tumour, BDF1 mice

CC(=O)O[C@H]1C(=O)[C@@]2(C)[C@H]([C@H](OC(=O)c3ccccc3)[C@]3(O)C[C@H](OC(=O)[C@H](O)[C@@H](NC(=O)c4ccccc4)c4ccccc4)C(C)=C1C3(C)C)[C@]1(OC(C)=O)CO[C@@H]1C[C@@H]2O [Paclitaxel, reference compound]
Response rate [1]: 48%
AUC [2]: 42.53 ig per h ml-1
AUC value (rounded) [2]: 43 jg h-1 ml-1
Cmax [2]: 14.13 ig ml-1
Cmax (rounded) [2]: 14 jg ml-1
IC50 [3]: 9.9 ng/mL (≈ 11.6 nM)
Response rate [4]: 30%
Optimal dose ([5]; administered on days 1-5 after inoculation, nude mice): 12.5 mg kg-1 per dose
Tumour weight inhibition (TWI) when untreated mice had a mean tumour mass of 0.5 g ([5]; analogues optimally, paclitaxel at non-toxic doses): 80%
Delay (1.0 g) (footnote: delay to reach mean tumour mass = 0.5 g, compared with untreated) [5, 13]: 1.4 days
Per cent cures (mice with no palpable tumours, day 60) [5, 13]: 0%
Per cent toxicity [5, 13]: 0%
TWI (per cent tumour weight inhibition when untreated control mean = 0.5 g) [5, 13]: 42%
Delay (1.0 g) (footnote: delay to reach mean tumour mass = 0.5 g, compared with untreated) [5, 14]: 13.4 days
Per cent cures (mice with no palpable tumours, day 60) [5, 14]: 10%
Per cent toxicity [5, 14]: 0%
TWI (per cent tumour weight inhibition when untreated control mean = 0.5 g) [5, 14]: 80%
Delay (1.0 g) (footnote: delay to reach mean tumour mass = 0.5 g, compared with untreated) [5, 15]: 19.1 days
Per cent cures (mice with no palpable tumours, day 60) [5, 15]: 30%
Per cent toxicity [5, 15]: 40%
TWI (per cent tumour weight inhibition when untreated control mean = 0.5 g) [5, 15]: 100%
Cure rate [5, 16]: 10%
Delay in tumour growth compared with untreated controls [5, 16]: 13.4 days
IC50 [6]: 4.9 ng/mL (≈ 5.74 nM)
IC50 [7]: 3.4 ng/mL (≈ 3.98 nM)
IC50 [8]: 2.7 ng/mL (≈ 3.16 nM)
Cure rate at optimal non-toxic dose [9, 17]: 0%
Optimal increase in life span (ILS) [9, 17]: 96%
%ILS (group mean increase in lifespan) ([9]; dose 6.25 mg kg-1 per day): 34%
MST (mean survival time ± s.d.) ([9]; dose 6.25 mg kg-1 per day): 26.4 ± 3.4 days
Per cent toxicity (mice with premature death) ([9]; dose 6.25 mg kg-1 per day): 0%
%ILS (group mean increase in lifespan) ([9]; dose 12.5 mg kg-1 per day): 34%
Per cent cures (mice alive 60 days after inoculation) ([9]; dose 12.5 mg kg-1 per day): 0%
Per cent toxicity (mice with premature death) ([9]; dose 12.5 mg kg-1 per day): 0%
%ILS (group mean increase in lifespan) ([9]; dose 25 mg kg-1 per day): 96%
MST (mean survival time ± s.d.) ([9]; dose 25 mg kg-1 per day): 38.6 ± 4.8 days
Per cent cures (mice alive 60 days after inoculation) ([9]; dose 25 mg kg-1 per day): 0%
Per cent toxicity (mice with premature death) ([9]; dose 25 mg kg-1 per day): 0%
Optimal dose ([9]; i.p. once daily for 5 consecutive days): 25 mg/kg/day
MTD (q.d. days 1-5) [10]: 25 mg kg-1 per day
Tumour weight inhibition (TWI) when untreated mice had a mean tumour mass of 1 g [11]: 47%
Delay (1.0 g): delay to reach mean tumour mass = 1.0 g, compared with untreated [11, 18]: 0.4 days
Per cent cures (mice with no palpable tumours, day 60) [11, 18]: 0%
Per cent toxicity [11, 18]: 0%
TWI (per cent tumour weight inhibition when untreated control mean = 1.0 g) [11, 18]: 22%
Days (1.0 g): days to reach mean tumour mass = 1.0 g ± s.d. [11, 19]: 12.6+ 1.0 days
Delay (1.0 g): delay to reach mean tumour mass = 1.0 g, compared with untreated [11, 19]: 0.6 days
Per cent cures (mice with no palpable tumours, day 60) [11, 19]: 0%
Per cent toxicity [11, 19]: 0%
TWI (per cent tumour weight inhibition when untreated control mean = 1.0 g) [11, 19]: 40%
Delay (1.0 g): delay to reach mean tumour mass = 1.0 g, compared with untreated [11, 20]: 0.9 days
Per cent cures (mice with no palpable tumours, day 60) [11, 20]: 0%
Per cent toxicity [11, 20]: 30%
TWI (per cent tumour weight inhibition when untreated control mean = 1.0 g) [11, 20]: 47%
Delay in solid tumour growth to 1 g ([11]; paclitaxel at a non-toxic dose): 0.6 days
Tmax [12]: 1.5 h
half-life [12]: 2.9 h
